# Test results: patent US9796962B2, “Method for generating pancreatic hormone-producing cells” (Kyoto University, priority 2013, dated 2017)
# Where a name gives a salt, the structure may show the parent alone.
# Assays:
# [1] = tested on: iPS cell lines 418C1, 409B2 and 201B7; experiment: Differentiation of three iPS cell lines into insulin positive cells; format: cell-based, human; settings: 10 mM in step 3 vs control; all three iPS cell lines; FIG. 2A
# From the text: Three iPS cell lines, 418C1 and 409B2 (Okita K, et al, Nat Methods. 2011 8:409-412) and 201B7, all of which were generated from fibroblast cells, can be obtained from Center for iPS Cell Research and Application, Kyoto University. The iPS cell lines obtained from Kyoto University were differentiated into insulin positive cells by subjecting the cells to the same steps as those in Examples 1 and 2 with the exception that the concentration of sodium cromoglicate in the culture medium used in step 3 was 10 mM.
# [2] = tested on: Human iPS cell line 201B7; experiment: Differentiation of 201B7 with sodium cromoglicate used solely or with single additives in step 3; format: cell-based
# Description: Human iPS cell line 201B7 was used. The cells were differentiated into insulin producing cells by the following steps. The colonies of the iPS cell line was grown to approximately 80-90% confluence in the culture plate and dissociated from the plate by using CTK solution (Reprocell). The dissociated colonies were then divided into single cells using Accutase™ and seeded in 24 well plates (Greiner) at 2.0×10^5/well. The cells were cultured in RPMI medium containing 1% B-27 added with activin A (100 ng/ml), CHIR99021 (1 μM) and Y-27632 (10 μM) for 2 days. Then, the cells were further cultured in RPMI medium containing 1% B-27 added with activin A (100 ng/ml) and CHIR99021 (1 μM) for more 3 days (Day 5). During this period, the medium was changed with the same fresh medium on the third (Day 3) and the fourth days (Day 4). The cells obtained in Step 1 were cultured in improved MEM Zinc Option medium containing 1% B-27 added with dorsomorphin (1 μM), retinoic acid (2 μM), and SB431542 (10 μM) for 6 days (Day 11). During this period, the medium was changed with the same fresh medium every two days. The cells obtained in Step 2 were cultured in improved MEM Zinc Option medium containing 1% B-27 added with sodium cromoglicate (10 mM) for more 8 days (Day 19). During this period, the medium was changed with the same fresh medium every four days. The ratio of insulin expression versus β-Actin expression was determined by using quantitative PCR. […] Then, the effect of sodium cromoglicate when used in combination with each of the four additives used in EXAMPLE 4: forskolin (10 μM), nicotinamide (10 mM), dexamethasone (10 μM), and ALK5 inhibitor II (5 μM) was determined.
# [3] = tested on: Human iPS cell line 201B7; experiment: Differentiation of 201B7 with 8 days step 3: marker gene PCR, immune staining, insulin amount; format: cell-based
# Description: Human iPS cell line 201B7 was used. The cells were differentiated into insulin producing cells by the following steps. The colonies of the iPS cell line was grown to 80-90% confluence in the culture plate and dissociated from the dish by using CTK solution (Reprocell). The dissociated colonies were then divided into single cells using Accutase™ and seeded in 24 well plates (Greiner) at 2.0×10^5/well.
# The cells were cultured in RPMI medium containing 1% B-27 added with activin A (100 ng/ml), CHIR99021 (1 μM) and Y-27632 (10 μM) for 2 days. Then, the cells were further cultured in RPMI medium containing 1% B-27 added with activin A (100 ng/ml) and CHIR99021 (1 μM) for more 3 days (Day 5). During this period, the medium was changed with the same fresh medium on the third (Day 3) and the fourth days (Day 4).
# The cells obtained in Step 1 were cultured in improved MEM Zinc Option medium containing 1% B-27 added with dorsomorphin (1 μM), retinoic acid (2 μM), and SB431542 (10 μM) for 6 days (Day 11). During this period, the medium was changed with the same fresh medium every two days.
# The cells obtained in Step 2 were cultured in improved MEM Zinc Option medium containing 1% B-27 added with forskolin (10 μM), nicotinamide (10 mM), dexamethasone (10 μM), ALK5 inhibitor II ((2-(3-(6-Methylpyridin-2-yl)-1H-pyrazol-4-yl)-1,5-naphthyridine)) (5 μM) and sodium cromoglicate (10 mM) for more 8 days (Day 19). During this period, the medium was changed with the same fresh medium every four days.
# The cells at each step were collected, i.e. on Day 0, Day 5, Day 11 and Day 19, and the expressions of marker genes were determined by PCR (FIG. 5B). In the group where cells were cultured in the presence of sodium cromoglicate in step 3, the expression of NGN3 and GHRE (Ghrelin) were confirmed. The expression of SST (somatostatin) in the group where cells were cultured in the presence of sodium cromoglicate in step 3 was higher than that in the group where cells were cultured in the absence of sodium cromoglicate.
# Further, the cells were subjected to immune staining and confirmed the production of proteins corresponding to the marker genes (FIG. 5C). The amount of insulin produced by the cells obtained by culturing the cells in the presence of sodium cromoglicate in step 3 and that produced by the cells obtained by culturing in the absence of sodium cromoglicate were compared, and the amount of insulin produced by the cells obtained with sodium cromoglicate was higher than that produced by the cells obtained without sodium cromoglicate (FIG. 5D).
# The cells were subjected to immune staining and the production of pancreatic hormones was confirmed (FIGS. 6A and 6B).
# [4] = tested on: Pancreatic anlages from mice embryos E12.5, E14.5 and E16.5; experiment: Differentiation of fetal pancreatic anlages into insulin producing cells (insulin promoter GFP); format: cell-based; settings: 10 mM with 4 factors
# Description: Pancreatic anlages were obtained from mice embryos E12.5, E14.5 and E16.5 that express GFP on the downstream of the insulin promoter. Each pancreatic anlage was cultured in a suspension culture in Improved MEM Zinc Option medium containing 1% B-27 added with forskolin (10 μM), nicotinamide (10 mM), dexamethasone (10 μM), ALK5 inhibitor II (5 μM) and sodium cromoglicate (10 mM) for 4 days.
# Further, expression of insulin and Neurog 3 in thus obtained cells were analyzed by PCR and confirmed that the expression of those genes was increased in the cells cultured with sodium cromoglicate (FIG. 7C).
# [5] = tested on: Human iPS cell line 201B7; experiment: Differentiation of human iPS cell line 201B7 into insulin producing cells (step 3 with 4 factors), flow cytometry; format: cell-based
# Description: Human iPS cell line 201B7 (this cell line can be obtained from Center for iPS Cell Research And Application, Kyoto University, Takahashi K et al, Cell. 2007 131:861-72., the contents of this document is incorporated herein by reference) was used. The iPS cells were differentiated into insulin producing cells by using the following steps. The colonies of the iPS cell line were grown to 70% confluent in the culture plate and dissociated from the plate by using CTK solution (Reprocell). The dissociated colonies were then divided into single cells using Accutase™ and seeded in 24 well plates (Greiner) at 2.0×10^5/well. The cells were cultured in RPMI medium containing 2% FBS added with activin A (100 ng/ml) and CHIR99021 (3 μM) for 5 days. During this period, the medium was changed with the same fresh medium on the third and the fourth days. The cells obtained in Step 1 were cultured in improved MEM Zinc Option medium containing 1% B-27 (Invitrogen Corp.) added with dorsomorphin (1 μM), retinoic acid (2 μM), and SB431542 (10 μM) for 6 days. During this period, the medium was changed with the same fresh medium every two days. The cells obtained in Step 2 were cultured in improved MEM Zinc Option medium containing 1% B-27 (Invitrogen Corp.) added with forskolin (10 μM), nicotinamide (10 mM), dexamethasone (10 μM), ALK5 inhibitor II ((2-(3-(6-methylpyridin-2-yl)-1H-pyrazol-4-yl)-1,5-naphthyridine)) (5 μM) and sodium cromoglicate (0.001 mM, 0.01 mM, 0.1 mM, 1 mM, 5 mM, 10 mM or 20 mM) for more 12 days. During this period, the medium was changed with the same fresh medium every four days. The obtained cells analyzed using flow cytometry to determine the number of insulin producing cells in the same manner as Example 1. The addition of 1 mM or more sodium cromoglicate in the culture medium increased the ratio of insulin positive cells and the maximum insulin positive cell-ratio was obtained when 10 mM sodium cromoglicate was added (FIG. 1A). Insulin production was confirmed by immune staining of the cells (FIG. 1B). Further, cells were stained with anti-human C-peptide antibody (Peninsula Laboratories LLC.) and analyzed by flow cytometry to see the production of C-peptide which is obtained by processing of pro-insulin. […] The highest ratio of the insulin positive cells was obtained by 12 days-culture in step 3. […] (FIG. 2B) Cells from cell line 201B7 were subjected to steps 1 and 2 in the same manner as above and cultured for 12 days in step 3. The obtained cells were stained with Ki67 and the ability of the cells to proliferate was evaluated. […] In addition, the obtained cells were treated by using BD Cytofix/Cytoperm™ Kit and stained with monoclonal anti-glucagon clone K79bB10 (SIGMA). The cells were analyzed by flow cytometry to determine the number of the glucagon positive cells.
# cell line 201B7 = experiment: Ki67 staining, ability of differentiated cells to proliferate; format: cell-based, human; settings: 10 mM, 12 days in step 3, FIG. 3
# Description: Cells from cell line 201B7 were subjected to steps 1 and 2 in the same manner as above and cultured for 12 days in step 3. The obtained cells were stained with Ki67 and the ability of the cells to proliferate was evaluated. […] In addition, the obtained cells were treated by using BD Cytofix/Cytoperm™ Kit and stained with monoclonal anti-glucagon clone K79bB10 (SIGMA). The cells were analyzed by flow cytometry to determine the number of the glucagon positive cells.
# Human ES cell line KhES3 = experiment: Differentiation of human ES cell line KhES3 into insulin producing cells, flow cytometry; format: cell-based; settings: step 3 with 4 factors plus 0.001-20 mM sodium cromoglicate, 12 days
# From the text: Human ES cell line KhES3 was obtained from Kyoto University and maintained in the manner as shown in H. Suemori et al. (2006), Biochem. Biophys. Res. Commun., 345:926-932, the contents of this document is herein incorporated by reference. The cells of KhES3 were differentiated into insulin producing cells according to the steps shown below. The colonies of the human ES cell line grown to approximately 70% confluent in the culture plate were dissociated from the plate by using CTK solution (Reprocell). The dissociated colonies were then divided into single cells using Accutase™ and seeded in 24 well plates (Greiner) at 2.0×10^5/well. The cells were cultured in RPMI medium containing 2% FBS added with activin A (100 ng/ml) and CHIR99021 (3 μM) for 5 days. During this period, the medium was changed with the same fresh medium on the third and the fourth days. The cells obtained in Step 1 were cultured in improved MEM Zinc Option medium containing 1% B-27 (Invitrogen Corp.) comprising dorsomorphin (1 μM), retinoic acid (2 μM), and SB431542 (10 μM) for 6 days. During this period, the medium was changed with the same fresh medium every two days. […] The obtained cells were treated by using BD Cytofix/Cytoperm™ Kit and then, stained with polyclonal guinea-pig anti Swine insulin antibody/anti-serum (DAKO) and analyzed using flow cytometry to determine the number of insulin producing cells.
# [6] = PCR, 10 mM in step 3, 8 days, FIG. 5B
# [7] = immune staining, Day 19, FIGS. 6A and 6B
structure (smiles),measurement,setting,value
"O=C(O)c1cc(=O)c2c(OCC(O)COc3cccc4oc(C(=O)O)cc(=O)c34)cccc2o1 [sodium cromoglicate, sodium salt of 1,3-Bis(2-carboxychromon-5-yloxy)-2-hydroxypropane]",ratio of insulin positive cells,[1],ratio of insulin positive cells were increased
same,expression of insulin in combination with each single additive,"[2]; combined with forskolin (10 μM), nicotinamide (10 mM), dexamethasone (10 μM) or ALK5 inhibitor II (5 μM)","confirmed in all 4 combinations, although the amount of the expression was not so high"
same,effect on the agents' induction of insulin producing cells in combination,"[2]; combined with forskolin, nicotinamide, dexamethasone or ALK5 inhibitor II",enhances the effects of all 4 agents
same,amount of insulin positive cells,"[2]; immune staining, 10 mM alone in step 3, 8 days, FIG. 8C",higher
same,"ratio of insulin expression versus β-Actin expression, presence vs absence","[2]; quantitative PCR, 10 mM alone in step 3, 8 days, FIG. 8B",higher
same,"amount of insulin produced by the cells, presence vs absence","[3]; Day 19, 4Fs plus sodium cromoglicate vs 4Fs, FIG. 5D",higher
same,expression of GHRE (Ghrelin),[3]; [6],confirmed
same,expression of NGN3,[3]; [6],confirmed
same,"expression of SST (somatostatin), presence vs absence",[3]; [6],higher
same,expression of glucagon,[3]; [7],increased
same,expression of insulin,[3]; [7],increased
same,expression of somatostatin,[3]; [7],increased
same,ratio of GFP positive cells,"[4]; suspension culture 4 days, E12.5, E14.5, E16.5, FIG. 7B",increased the ratio of GFP positive cells in each embryonic pancreatic anlage
same,expression of Neurog 3,"[4]; PCR, 4 days, FIG. 7C",increased
same,expression of insulin,"[4]; PCR, 4 days, FIG. 7C",increased
same,ratio of insulin positive cells by culture period in step 3,"[5]; 10 mM, 8, 12 and 16 days in step 3, FIG. 2B","increased in the groups cultured for 8 days, 12 days and 16 days"
same,"effect on ratio of insulin positive cells, 4 days in step 3","[5]; 10 mM, 4 days in step 3, FIG. 2B","also confirmed, although the efficiency was low"
same,ratio of insulin positive cells,"[5]; 10 mM, 12 days in step 3, FIG. 4",increased the ratio of both insulin positive cells and glucagon positive cells
same,ratio of glucagon positive cells,"[5]; 10 mM, 12 days in step 3, anti-glucagon flow cytometry, FIG. 4",increased the ratio of both insulin positive cells and glucagon positive cells
same,culture period in step 3 giving the highest ratio of insulin positive cells,"[5]; 10 mM, FIG. 2B",12 days
same,production of C-peptide,"[5]; anti-human C-peptide antibody, flow cytometry, FIG. 1C",increased by addition of sodium cromoglicate in a dose dependent manner
same,concentration giving the maximum insulin positive cell-ratio,"[5]; step 3 12 days, FIG. 1A",10 mM
same,concentration in the culture medium that increased the ratio of insulin positive cells,"[5]; step 3 12 days, FIG. 1A",≥ 1 mM
same,"number of Ki67 positive cells, presence vs absence",cell line 201B7,no substantial difference
same,ratio of insulin positive cells,Human ES cell line KhES3,increased the ratio of insulin positive cells in a concentration dependent manner
